Consider three compounds from ChEMBL document CHEMBL6120977, “Structure-Affinity-Pharmacokinetics Relationships of Novel 18F-Labeled 1,4-Diazepane Derivatives for Orexin 1 Receptor Imaging” (J Med Chem, 2024).

The target of series [1] is T1, Orexin/Hypocretin receptor type 1 (Homo sapiens, UniProt O43613).
T1 sequence (O43613 whole entry): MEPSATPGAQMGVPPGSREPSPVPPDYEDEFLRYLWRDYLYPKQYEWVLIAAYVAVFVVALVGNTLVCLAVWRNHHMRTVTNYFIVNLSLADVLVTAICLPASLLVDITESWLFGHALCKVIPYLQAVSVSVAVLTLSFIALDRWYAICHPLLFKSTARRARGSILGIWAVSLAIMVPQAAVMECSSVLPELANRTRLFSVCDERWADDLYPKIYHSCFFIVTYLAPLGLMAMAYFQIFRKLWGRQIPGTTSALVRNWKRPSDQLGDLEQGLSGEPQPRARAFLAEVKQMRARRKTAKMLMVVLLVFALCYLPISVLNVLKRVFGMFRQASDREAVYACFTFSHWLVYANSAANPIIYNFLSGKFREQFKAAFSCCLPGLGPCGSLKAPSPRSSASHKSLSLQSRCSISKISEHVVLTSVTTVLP
The experiment in a line: Displacement of [125I]Orexin A from recombinant human OX1R expressed in CHO-S cells by radioligand competition binding assay. It is filed as cell-based. A general note: Displacement assays read how much labelled ligand stays bound in the presence of the test substance.

Series [2] deals with T2, Orexin receptor type 2 (Homo sapiens, UniProt O43614).
T2 sequence (O43614 whole entry): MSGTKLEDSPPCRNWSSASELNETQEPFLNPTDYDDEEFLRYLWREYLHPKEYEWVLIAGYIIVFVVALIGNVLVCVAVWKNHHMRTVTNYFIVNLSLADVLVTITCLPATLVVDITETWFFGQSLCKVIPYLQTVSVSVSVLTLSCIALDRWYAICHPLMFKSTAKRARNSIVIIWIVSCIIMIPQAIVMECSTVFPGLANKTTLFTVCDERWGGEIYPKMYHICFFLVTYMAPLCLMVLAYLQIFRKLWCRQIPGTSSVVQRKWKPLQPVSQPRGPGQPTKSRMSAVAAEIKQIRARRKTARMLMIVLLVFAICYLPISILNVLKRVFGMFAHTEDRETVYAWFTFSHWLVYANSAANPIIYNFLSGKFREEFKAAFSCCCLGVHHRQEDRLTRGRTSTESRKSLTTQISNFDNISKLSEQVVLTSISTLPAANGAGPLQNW
In words: Displacement of [125I]Orexin A from recombinant human OX2R expressed in CHO-S cells by radioligand competition binding assay. It is filed as cell-based.

Series [3] is described as follows: Apparent permeability in pig LLC-PK1 cells. Format: ADME, cell-based, Sus scrofa.
Another series is filed under the species Homo sapiens. In words: Selectivity ratio of IC50 for recombinant human OX2R extracted from HEK293T cell membrane to IC50 for recombinant human OX1R extracted from HEK293T cell membrane.
The target of series [4] is T1, Orexin/Hypocretin receptor type 1. The experiment in a line: Displacement of […]5IBOM from OX1R (unknown origin) transfected in CHO cells assessed as inhibition constant incubated for 1.5 hrs by automated gamma-counter analysis. Format: cell-based.
Series [5] addresses T2, Orexin receptor type 2. In words: Displacement of [3H]EMPA from recombinant human OX2R extracted from HEK293T membrane by radioligand binding assay. It is filed as cell membranes.
Series [6] deals with T2, Orexin receptor type 2. The experiment in a line: Displacement of […]5IBOM from OX2R (unknown origin) transfected in CHO cells assessed as inhibition constant incubated for 1.5 hrs by automated gamma-counter analysis. Format: cell-based.
For series [7], the target named is T1, Orexin/Hypocretin receptor type 1. In words: Displacement of [3H]SB-674042 from recombinant human OX1R extracted from HEK293T membrane by radioligand binding assay. Format: cell membranes.
The nature of series [8]: Selectivity ratio of Ki for OX2R (unknown origin) transfected in CHO cells to Ki for OX1R (unknown origin) transfected in CHO cells. Format: cell-based.

`COc1ccnc(N2CCC3(CCN(Cc4cn([11CH3])c5ccccc45)C(=O)C3)CC2)n1`: the results for the IC50 (in [1]; at Orexin receptor type 2 [2]) were 253 nM and 1410 nM, respectively.
Turning to `Cc1ccc(-n2nccn2)c(C(=O)N2CCN(c3nc4cc(Cl)ccc4o3)CC[C@H]2C)c1` [SUVOREXANT], the Papp in [3] amounted to 34.6 ×10⁻⁶ cm/s.
Take `Cc1ccc(-n2nccn2)c(C(=O)N2CCCN(c3nc4cc(Cl)ccc4o3)C[C@@H]2C)c1`: the Ratio IC50 in the series filed under Homo sapiens came out at 2.4. In addition, the Ki in [4] came to 1.12 nM; at Orexin receptor type 2 [6], 9.79 nM. For the same compound, the IC50 at Orexin receptor type 2 [5] turned out to be 2 nM; in series [7], 0.83 nM. In addition, the Ratio Ki in [8] worked out at 8.71.

In general, IC50 refers to the midpoint of a concentration-inhibition curve. In general, Papp refers to the rate of passage across a membrane or cell layer, normalised by area and donor concentration. A word on the Ki: it is the equilibrium dissociation constant of an inhibitor or competing ligand from its target.
